Laboratory results reported in ChEMBL document CHEMBL3885861, “Open TG-GATES”.

Organism: Rattus norvegicus
Assay: Open TG-GATES - Regimen: Daily Repeat
Assay type: toxicity, organism-based, Sprague-Dawley
Set-up: regimen Daily Repeat, gender Male, age 6 weeks
Conditions: in vivo, po, 120 mg/kg, route gavage, dose level Middle; for APTT / Bas / Eos / Fbg / Hb / Ht / Lym / MCH / MCHC / MCV / Mono / Neu / PT / Plat / RBC / Ret / WBC: tissue Blood; for KIDNEY_L / KIDNEY_R / KIDNEY_TOTAL: tissue Kidney; for LIVER: tissue Liver; for A/G / ALP / ALT / AST / BUN / CRE / Ca / Cl / DBIL / GLC / IP / K / LDH / Na / PL / RALB / TBIL / TC / TG / TP / gamma-GTP: tissue Plasma

In the case of `Cc1cccc(C)c1OCC(C)N` (configuration not stated) [MEXILETINE], the TERMINAL_BW (72 h, time 3 day) is reported as 236.3 g, the APTT (72 h, time 3 day) is reported as 21.8 s and the Bas (72 h, time 3 day) is reported as 0%. It also gave an Eos (72 h, time 3 day) of 0.8%, a Fbg (72 h, time 3 day) of 325.2 mg/dL and a Hb (72 h, time 3 day) of 12.9 g/dL. It also gave a Ht (72 h, time 3 day) of 40.1%, a Lym (72 h, time 3 day) of 74% and an MCH (72 h, time 3 day) of 19.7 pg. It also gave an MCHC (72 h, time 3 day) of 32.3%, an MCV (72 h, time 3 day) of 61.1 fL and a Mono (72 h, time 3 day) of 2.6%. For the same compound, the Neu (72 h, time 3 day) was 21.6%, the PT (72 h, time 3 day) was 15.3 s and the Plat (72 h, time 3 day) was 115.5 x10_4/uL. It also gave an RBC (72 h, time 3 day) of 656.6 x10_4/ul, a Ret (72 h, time 3 day) of 6.1% and a WBC (72 h, time 3 day) of 96.8 x10_2/uL. The KIDNEY_L (72 h, time 3 day) was 1 g, the KIDNEY_R (72 h, time 3 day) was 1 g and the KIDNEY_TOTAL (72 h, time 3 day) was 2 g. It also gave an LIVER (72 h, time 3 day) of 11.5 g, an A/G (72 h, time 3 day) of 1.3 and an ALP (72 h, time 3 day) of 1686.2 IU/L. The ALT (72 h, time 3 day) was 48.6 IU/L, the AST (72 h, time 3 day) was 73.4 IU/L and the BUN (72 h, time 3 day) was 16.6 mg/dL. The CRE (72 h, time 3 day) was 0.1 mg/dL, the Ca (72 h, time 3 day) was 10.8 mg/dL and the Cl (72 h, time 3 day) was 106.2 meq/L. For the same compound, the DBIL (72 h, time 3 day) was 0 mg/dL, the GLC (72 h, time 3 day) was 197 mg/dL and the IP (72 h, time 3 day) was 8 mg/dL. The K (72 h, time 3 day) was 4.3 meq/L, the LDH (72 h, time 3 day) was 181.2 IU/L and the Na (72 h, time 3 day) was 141.6 meq/L. For the same compound, the PL (72 h, time 3 day) was 168 mg/dL, the RALB (72 h, time 3 day) was 3.2 g/dL and the TBIL (72 h, time 3 day) was 0.002 mg/dL. It also gave a TC (72 h, time 3 day) of 91.2 mg/dL, a TG (72 h, time 3 day) of 150.2 mg/dL and a TP (72 h, time 3 day) of 5.7 g/dL. For the same compound, the gamma-GTP (72 h, time 3 day) was 1.8 IU/L, the TERMINAL_BW ([…], time 7 day) was 275.9 g and the TERMINAL_BW ([…], time 14 day) was 328.1 g. The TERMINAL_BW ([…], time 28 day) was 389.9 g, the APTT ([…], time 7 day) was 22.2 s and the Bas ([…], time 7 day) was 0%. It also gave an Eos ([…], time 7 day) of 0.8%, a Fbg ([…], time 7 day) of 321.2 mg/dL and a Hb ([…], time 7 day) of 13.1 g/dL. For the same compound, the Ht ([…], time 7 day) was 40.4%, the Lym ([…], time 7 day) was 77.8% and the MCH ([…], time 7 day) was 20.5 pg. The MCHC ([…], time 7 day) was 32.4%, the MCV ([…], time 7 day) was 63.3 fL and the Mono ([…], time 7 day) was 2.4%. For the same compound, the Neu ([…], time 7 day) was 18.4%, the PT ([…], time 7 day) was 15.6 s and the Plat ([…], time 7 day) was 105.3 x10_4/uL. The RBC ([…], time 7 day) was 638 x10_4/ul, the Ret ([…], time 7 day) was 6.2% and the WBC ([…], time 7 day) was 107.1 x10_2/uL. It also gave an APTT ([…], time 14 day) of 21.8 s, a Bas ([…], time 14 day) of 0% and an Eos ([…], time 14 day) of 0.4%. For the same compound, the Fbg ([…], time 14 day) was 310.2 mg/dL, the Hb ([…], time 14 day) was 13.1 g/dL and the Ht ([…], time 14 day) was 40.6%. The Lym ([…], time 14 day) was 83.2%, the MCH ([…], time 14 day) was 20.1 pg and the MCHC ([…], time 14 day) was 32.2%. It also gave an MCV ([…], time 14 day) of 62.6 fL, a Mono ([…], time 14 day) of 2% and a Neu ([…], time 14 day) of 13.6%. It also gave a PT ([…], time 14 day) of 15.9 s, a Plat ([…], time 14 day) of 113.4 x10_4/uL and an RBC ([…], time 14 day) of 648.8 x10_4/ul. It also gave a Ret ([…], time 14 day) of 7.3%, a WBC ([…], time 14 day) of 96 x10_2/uL and an APTT ([…], time 28 day) of 23.8 s. The Bas ([…], time 28 day) was 0%, the Eos ([…], time 28 day) was 1.8% and the Fbg ([…], time 28 day) was 328.2 mg/dL. For the same compound, the Hb ([…], time 28 day) was 15.1 g/dL, the Ht ([…], time 28 day) was 44% and the Lym ([…], time 28 day) was 74%. The MCH ([…], time 28 day) was 19.4 pg, the MCHC ([…], time 28 day) was 34.4% and the MCV ([…], time 28 day) was 56.6 fL. It also gave a Mono ([…], time 28 day) of 2.4%, a Neu ([…], time 28 day) of 21.2% and a PT ([…], time 28 day) of 15.6 s. It also gave a Plat ([…], time 28 day) of 94.2 x10_4/uL, an RBC ([…], time 28 day) of 777 x10_4/ul and a Ret ([…], time 28 day) of 3.1%. For the same compound, the WBC ([…], time 28 day) was 93 x10_2/uL, the KIDNEY_L ([…], time 7 day) was 1.1 g and the KIDNEY_R ([…], time 7 day) was 1.1 g. For the same compound, the KIDNEY_TOTAL ([…], time 7 day) was 2.2 g, the KIDNEY_L ([…], time 14 day) was 1.3 g and the KIDNEY_R ([…], time 14 day) was 1.3 g. The KIDNEY_TOTAL ([…], time 14 day) was 2.6 g, the KIDNEY_L ([…], time 28 day) was 1.5 g and the KIDNEY_R ([…], time 28 day) was 1.5 g. The KIDNEY_TOTAL ([…], time 28 day) was 2.9 g, the LIVER ([…], time 7 day) was 13.2 g and the LIVER ([…], time 14 day) was 14.8 g. It also gave an LIVER ([…], time 28 day) of 16.8 g, an A/G ([…], time 7 day) of 1.2 and an ALP ([…], time 7 day) of 1567.6 IU/L. The ALT ([…], time 7 day) was 45 IU/L, the AST ([…], time 7 day) was 69.8 IU/L and the BUN ([…], time 7 day) was 18.4 mg/dL. It also gave a CRE ([…], time 7 day) of 0.1 mg/dL, a Ca ([…], time 7 day) of 11 mg/dL and a Cl ([…], time 7 day) of 104.8 meq/L. For the same compound, the DBIL ([…], time 7 day) was 0 mg/dL, the GLC ([…], time 7 day) was 188.6 mg/dL and the IP ([…], time 7 day) was 7.8 mg/dL. It also gave a K ([…], time 7 day) of 4.2 meq/L, an LDH ([…], time 7 day) of 145.6 IU/L and a Na ([…], time 7 day) of 142 meq/L. It also gave a PL ([…], time 7 day) of 163.2 mg/dL, an RALB ([…], time 7 day) of 3 g/dL and a TBIL ([…], time 7 day) of 0.004 mg/dL. The TC ([…], time 7 day) was 81.2 mg/dL, the TG ([…], time 7 day) was 148 mg/dL and the TP ([…], time 7 day) was 5.6 g/dL. For the same compound, the gamma-GTP ([…], time 7 day) was 1.6 IU/L, the A/G ([…], time 14 day) was 1.1 and the ALP ([…], time 14 day) was 1443.2 IU/L. The ALT ([…], time 14 day) was 43.2 IU/L, the AST ([…], time 14 day) was 74.6 IU/L and the BUN ([…], time 14 day) was 19.4 mg/dL. It also gave a CRE ([…], time 14 day) of 0.2 mg/dL, a Ca ([…], time 14 day) of 10.5 mg/dL and a Cl ([…], time 14 day) of 107.2 meq/L. It also gave a DBIL ([…], time 14 day) of 0 mg/dL, a GLC ([…], time 14 day) of 190.6 mg/dL and an IP ([…], time 14 day) of 6.5 mg/dL. The K ([…], time 14 day) was 4.4 meq/L, the LDH ([…], time 14 day) was 157.8 IU/L and the Na ([…], time 14 day) was 140.6 meq/L. It also gave a PL ([…], time 14 day) of 160 mg/dL, an RALB ([…], time 14 day) of 2.9 g/dL and a TBIL ([…], time 14 day) of 0.002 mg/dL. The TC ([…], time 14 day) was 80.8 mg/dL, the TG ([…], time 14 day) was 155.6 mg/dL and the TP ([…], time 14 day) was 5.7 g/dL. For the same compound, the gamma-GTP ([…], time 14 day) was 2.2 IU/L, the A/G ([…], time 28 day) was 1 and the ALP ([…], time 28 day) was 977 IU/L. It also gave an ALT ([…], time 28 day) of 42.4 IU/L, an AST ([…], time 28 day) of 68.8 IU/L and a BUN ([…], time 28 day) of 16.2 mg/dL. The CRE ([…], time 28 day) was 0.2 mg/dL, the Ca ([…], time 28 day) was 10.4 mg/dL and the Cl ([…], time 28 day) was 105.6 meq/L. The DBIL ([…], time 28 day) was 0 mg/dL, the GLC ([…], time 28 day) was 201.6 mg/dL and the IP ([…], time 28 day) was 6 mg/dL. The K ([…], time 28 day) was 3.7 meq/L, the LDH ([…], time 28 day) was 158.2 IU/L and the Na ([…], time 28 day) was 142.8 meq/L. The PL ([…], time 28 day) was 157.8 mg/dL, the RALB ([…], time 28 day) was 3.1 g/dL and the TBIL ([…], time 28 day) was 0.012 mg/dL. It also gave a TC ([…], time 28 day) of 80.2 mg/dL, a TG ([…], time 28 day) of 145.2 mg/dL and a TP ([…], time 28 day) of 6.1 g/dL. For the same compound, the gamma-GTP ([…], time 28 day) was 2 IU/L.
